Measured values taken from US20250109127A1, “METHODS OF USE OF PHENOXYPROPYLAMINE COMPOUNDS TO TREAT DEPRESSION” (Minerva Neurosciences, Inc., priority 2013, published 2025).
Where “and” joins values, the source holds several entries; their conditions need not be identical. Identical values can stand only once. Counter-ions that a name gives are not always drawn.

System: HVA release in the rat prefrontal cortex
Test: Microdialysis: HVA release in prefrontal cortex after I.P. administration
Format: in vivo
Details: for HVA release (% of basal levels) measured in dialysates: individual animals, hydrochloride, 3 mg/kg; for HVA release (% of basal levels) measured in dialysates, MEAN / HVA (% of respective basal) MEAN: n = 8; for HVA (% of respective basal) MEAN: SON-117 group 0.1 mg/kg I.P.
Experimental: The aim of the study was to evaluate, using microdialysis, the effects of an intraperitoneal (I.P.) administration in rats of three different doses of SON-117 on dopamine and its metabolites, serotonin and its metabolite (5-HIAA), and norepinephrine levels in prefrontal cortex.
Thirty-two adult male Wistar rats were used for the whole study (4 groups of eight animals planned for the study, Table 1).
Surgery was performed on rats weighing about 300 g at the beginning of the experiments. Rats were anaesthetized with Ketamine (50 mg/kg) & Xylazine (15 mg/kg) by intramuscular administration. The animals were placed in a stereotaxic apparatus in the flat-skull position at a constant setting of −3.3 mm between ear bars and the incisor bar. The animals were treated with a local anesthesic (xylocaine 1%, Astra Zeneca) and an analgesic (Temgesic, from Schering Plough, 0.05 mg/kg, s.c.). A rostrocaudal midline incision was made with a lancet to expose the dorsal skull surface. The “stereotaxic zero” was defined by the Bregma in accordance with Paxinos and Watson's atlas (1986). A hole was drilled in the skull with a drill and the meninges were pierced with a sterile needle to implant a CMA12 guide cannula which later received the dialysis probe.
Coordinates used for implanting guide cannula in prefrontal cortex from Bregma were anteroposterior 3.7 mm, mediolateral 0.8 mm, and dorsoventral −2 mm (top of the probe was at −5 mm). The guide cannula was fixed to the skull with two stainless steel screws (1.88 mm outside diameter) anchored. An application of dental cement was added. A plastic collar allowed each animal to be tethered to a Swivel assembly of the CMA 120 awake animal system. Following surgery, rats were kept in individual cages and allowed to recover for a minimum of 3-5 days before the experimentation. The rats were handled and put in plastic bowl for 10 min at least every day to habituate the animals to their new environment for the dialysis. An I.P. administration with saline was also performed every day.
Dialysis probes (CMA12/3 mm, membrane, 20 kD cut-off, Carnegie Medicine, Stockholm, Sweden), were carefully washed before inserting into the guide cannula. The wash was performed with the artificial cerebrospinal fluid (aCSF) medium (NaCl 147 mM, KCl 2.7 mM, CaCl2 1.2 mM, MgCl2 0.85 mM) at room temperature. The dialysis system was then equilibrated at 20° C. at a perfusion rate of 1 μl/min with a Carnegie pump (CMA100). All catheters (FEP tubing, internal volume of 1.2 μl/10 cm, and tubing adaptors) used for microdialysis were treated in the same conditions.
The probes duly prepared were inserted into the guide cannula and the CMA120 Swivel assembly secured to the animal using a plastic collar. Flow through the dialysis probe with aCSF was maintained at a rate of 1 μl/min during the whole experimentation. The first four fractions (corresponding to 2 hours) were discarded to avoid the effects of parenchymal disturbance and to ensure that an approximate steady-state level was reached. Fractions were then collected over a period of 8.5 h during which time the animals remained quiet. The dialysates were automatically collected with an autosampler (microfraction collector CMA 140, Carnegie Medicin) and stored at −80° C. until analysis. […] Perfusion was then maintained for 7 hours with aCSF. The dialysates (30 μl) were collected into 300 μl vials, transferred into dry ice and then kept frozen (−80° C.) until analysis. Frozen samples were shipped to a partner for analysis. At the end of the microdialysis study, a PBS with colored ink was perfused through the probe in order to visualize the dialyzed area.
Catecholamine assay: Concentrations of dopamine, DOPAC, HVA, 5-HIAA, 5-HT, and norepinephrin were determined for each sample by HPLC coupled with electrochemical detection.

[1] = SON-117 3 mg/kg IP, T1 h 30-T2 h
[2] = SON-117 3 mg/kg IP, T1 h-T1 h 30
[3] = SON-117 3 mg/kg IP, T2 h 30-T3 h
[4] = SON-117 3 mg/kg IP, T2 h-T2 h 30
[5] = SON-117 3 mg/kg IP, T3 h 30-T4 h
[6] = SON-117 3 mg/kg IP, T3 h-T3 h 30
[7] = SON-117 3 mg/kg IP, T4 h 30-T5 h
[8] = SON-117 3 mg/kg IP, T4 h-T4 h 30
[9] = SON-117 3 mg/kg IP, T5 h 30-T6 h
[10] = SON-117 3 mg/kg IP, T5 h-T5 h 30
[11] = SON-117 3 mg/kg IP, T6 h 30-T7 h
[12] = SON-117 3 mg/kg IP, T6 h-T6 h 30

Cc1nnc(-c2cc3c(OC[C@@H](O)CN4CCC(c5ccc(Cl)c(Cl)c5)CC4)cccc3o2)o1 [SON-117, (S)-1-(4-(3,4-dichlorophenyl)piperidino)-3-(2-(5-methyl-1,3,4-oxadiazol-2-yl)benzo(b)furan-4-yloxy)-2-propanol hydrochloride]
HVA release (% of basal levels) measured in dialysates (SON-117 3 mg/kg IP, T30-T1 h): 87.52 % of basal levels and 80.65 % of basal levels and 76.40 % of basal levels and 105.83 % of basal levels and 105.61 % of basal levels and 95.14 % of basal levels and 127.36 % of basal levels and 107.87 % of basal levels
HVA release (% of basal levels) measured in dialysates, MEAN [1]: 106.02 % of basal levels
HVA release (% of basal levels) measured in dialysates [1]: 84.71 % of basal levels and 105.56 % of basal levels and 94.73 % of basal levels and 137.50 % of basal levels and 83.65 % of basal levels and 91.30 % of basal levels and 115.23 % of basal levels and 135.51 % of basal levels
HVA release (% of basal levels) measured in dialysates, MEAN [2]: 103.62 % of basal levels
HVA release (% of basal levels) measured in dialysates [2]: 91.12 % of basal levels and 84.36 % of basal levels and 104.08 % of basal levels and 126.08 % of basal levels and 106.58 % of basal levels and 89.86 % of basal levels and 137.31 % of basal levels and 89.55 % of basal levels
HVA release (% of basal levels) measured in dialysates, MEAN [3]: 102.12 % of basal levels
HVA release (% of basal levels) measured in dialysates [3]: 105.21 % of basal levels and 84.02 % of basal levels and 95.14 % of basal levels and 119.75 % of basal levels and 76.92 % of basal levels and 96.18 % of basal levels and 146.40 % of basal levels and 93.34 % of basal levels
HVA release (% of basal levels) measured in dialysates, MEAN [4]: 98.10 % of basal levels
HVA release (% of basal levels) measured in dialysates [4]: 100.40 % of basal levels and 90.71 % of basal levels and 80.00 % of basal levels and 109.73 % of basal levels and 85.44 % of basal levels and 89.46 % of basal levels and 133.10 % of basal levels and 95.93 % of basal levels
HVA release (% of basal levels) measured in dialysates, MEAN [5]: 98.25 % of basal levels
HVA release (% of basal levels) measured in dialysates [5]: 101.22 % of basal levels and 90.35 % of basal levels and 83.39 % of basal levels and 123.68 % of basal levels and 80.06 % of basal levels and 94.85 % of basal levels and 114.56 % of basal levels and 97.90 % of basal levels
HVA release (% of basal levels) measured in dialysates, MEAN [6]: 105.01 % of basal levels
HVA release (% of basal levels) measured in dialysates [6]: 99.13 % of basal levels and 88.16 % of basal levels and 98.47 % of basal levels and 148.68 % of basal levels and 75.12 % of basal levels and 89.56 % of basal levels and 118.49 % of basal levels and 122.51 % of basal levels
HVA release (% of basal levels) measured in dialysates, MEAN [7]: 92.26 % of basal levels
HVA release (% of basal levels) measured in dialysates [7]: 94.88 % of basal levels and 58.87 % of basal levels and 92.33 % of basal levels and 106.33 % of basal levels and 75.16 % of basal levels and 112.83 % of basal levels and 123.56 % of basal levels and 74.10 % of basal levels
HVA release (% of basal levels) measured in dialysates, MEAN [8]: 99.19 % of basal levels
HVA release (% of basal levels) measured in dialysates [8]: 97.33 % of basal levels and 77.20 % of basal levels and 84.63 % of basal levels and 137.16 % of basal levels and 71.70 % of basal levels and 91.93 % of basal levels and 127.61 % of basal levels and 105.99 % of basal levels
HVA release (% of basal levels) measured in dialysates, MEAN [9]: 87.32 % of basal levels
HVA release (% of basal levels) measured in dialysates [9]: 93.31 % of basal levels and 31.10 % of basal levels and 89.25 % of basal levels and 99.64 % of basal levels and 66.49 % of basal levels and 109.12 % of basal levels and 117.65 % of basal levels and 101.69 % of basal levels
HVA release (% of basal levels) measured in dialysates, MEAN [10]: 101.76 % of basal levels
HVA release (% of basal levels) measured in dialysates [10]: 93.67 % of basal levels and 56.56 % of basal levels and 102.66 % of basal levels and 106.92 % of basal levels and 69.24 % of basal levels and 112.81 % of basal levels and 133.42 % of basal levels and 138.83 % of basal levels
HVA release (% of basal levels) measured in dialysates, MEAN [11]: 96.24 % of basal levels
HVA release (% of basal levels) measured in dialysates [11]: 84.70 % of basal levels and 71.14 % of basal levels and 87.80 % of basal levels and 117.29 % of basal levels and 74.11 % of basal levels
HVA release (% of basal levels) measured in dialysates, MEAN [12]: 88.31 % of basal levels
HVA release (% of basal levels) measured in dialysates [12]: 71.80 % of basal levels and 62.19 % of basal levels and 96.42 % of basal levels and 114.78 % of basal levels and 75.15 % of basal levels and 95.54 % of basal levels and 102.27 % of basal levels
HVA release (% of basal levels) measured in dialysates, MEAN (SON-117 3 mg/kg IP, T-30 min-T0 (pre-administration)): 97.66 % of basal levels
HVA release (% of basal levels) measured in dialysates, MEAN (SON-117 3 mg/kg IP, T-1 h 30-T-1 h (pre-administration)): 99.26 % of basal levels
HVA release (% of basal levels) measured in dialysates, MEAN (SON-117 3 mg/kg IP, T-1 h-T-30 min (pre-administration)): 103.08 % of basal levels
HVA concentration in prefrontal cortex, significant slight increase (SON-117 3 mg/kg IP, at 3.5 h): 114%
HVA, difference to the citalopram group (two-way ANOVA) (SON-117 at the three doses tested, in function of time): no significant differences
HVA (% of respective basal) MEAN (T0-T30 min): 101.53 % of respective basal
HVA (% of respective basal) MEAN (T30-T1 h): 118.07 % of respective basal
HVA (% of respective basal) MEAN (T1 h 30-T2 h): 112.1 % of respective basal
HVA (% of respective basal) MEAN (T1 h-T1 h 30): 139.45 % of respective basal
HVA (% of respective basal) MEAN (T2 h 30-T3 h): 111.13 % of respective basal
HVA (% of respective basal) MEAN (T2 h-T2 h 30): 107.76 % of respective basal
HVA (% of respective basal) MEAN (T3 h 30-T4 h): 113.38 % of respective basal
HVA (% of respective basal) MEAN (T3 h-T3 h 30): 106.61 % of respective basal
HVA (% of respective basal) MEAN (T4 h 30-T5 h): 102.76 % of respective basal
HVA (% of respective basal) MEAN (T4 h-T4 h 30): 127.17 % of respective basal
HVA (% of respective basal) MEAN (T5 h 30-T6 h): 109.97 % of respective basal
HVA (% of respective basal) MEAN (T5 h-T5 h 30): 112.73 % of respective basal
HVA (% of respective basal) MEAN (T6 h 30-T7 h): 113.53 % of respective basal
HVA (% of respective basal) MEAN (T6 h-T6 h 30): 108.85 % of respective basal
HVA (% of respective basal) MEAN (T-30 min-T0 (before administration)): 101.64 % of respective basal
HVA (% of respective basal) MEAN (T-1 h 30-T-1 h (before administration)): 97.88 % of respective basal
HVA (% of respective basal) MEAN (T-1 h-T-30 min (before administration)): 100.48 % of respective basal
